Results published in PubChem BioAssay (NCI).
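Dose response: 5 concentrations. Exposure: 48 h. Format: 96-well plates. Endpoint: linear interpolation; highest concentration if not reached. At the TGI there is no net growth.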

Assays:
Experiment in all cases: NCI tumour cell line growth inhibition, 48 h
A549 NSCLC = test system: A549 NSCLC
CAKI-1 renal = test system: CAKI-1 renal
HCC-2998 colon = test system: HCC-2998 colon
HOP-92 NSCLC = test system: HOP-92 NSCLC
MCF7 breast = test system: MCF7 breast
NCI-H460 lung = test system: NCI-H460 lung
OVCAR-3 ovarian = test system: OVCAR-3 ovarian
OVCAR-5 ovarian = test system: OVCAR-5 ovarian
OVCAR-8 ovarian = test system: OVCAR-8 ovarian
SF-539 CNS = test system: SF-539 CNS
SK-MEL-2 melanoma = test system: SK-MEL-2 melanoma
SK-MEL-5 melanoma = test system: SK-MEL-5 melanoma
SNB-19 CNS = test system: SNB-19 CNS
SW-620 colon = test system: SW-620 colon
UACC-62 melanoma = test system: UACC-62 melanoma
UO-31 renal = test system: UO-31 renal
M14 melanoma = test system: M14 melanoma
MDA-MB-435 = test system: MDA-MB-435

Row | Compound | TGI (A549 NSCLC) [µM] | TGI (CAKI-1 renal) [µM] | TGI (HCC-2998 colon) [µM] | TGI (HOP-92 NSCLC) [µM] | TGI (MCF7 breast) [µM] | TGI (NCI-H460 lung) [µM] | TGI (OVCAR-3 ovarian) [µM] | TGI (OVCAR-5 ovarian) [µM] | TGI (OVCAR-8 ovarian) [µM] | TGI (SF-539 CNS) [µM] | TGI (SK-MEL-2 melanoma) [µM] | TGI (SK-MEL-5 melanoma) [µM] | TGI (SNB-19 CNS) [µM] | TGI (SW-620 colon) [µM] | TGI (UACC-62 melanoma) [µM] | TGI (UO-31 renal) [µM] | TGI (M14 melanoma) [µM] | TGI (MDA-MB-435) [µM]
1 | Cc1[nH]c(=O)[nH]c(=O)c1/C=C/C(=O)NC(CO)CS(=O)Cc1ccccc1 (centres undefined) | > 300 | > 300 | > 300 | > 300 | > 300 | > 300 | > 300 | > 300 | > 300 | > 300 | > 300 | > 300 | > 300 | > 300 | > 300 | > 300 |  | 
2 | O=c1/c(=C/c2ccc([N+](=O)[O-])o2)sc2n1[C@@H](c1ccc(Cl)cc1)C=C(c1cc(F)c(Cl)cc1Cl)N=2 | 86.9 | > 100 |  | 28.5 | 32.2 | 24.3 |  | 30.6 | 40.8 | 69 | 17.6 | 28.8 | 33.6 | > 100 | 29.2 | 32.5 | 29.1 | 36.2
3 | Cc1ccc([N+](=O)[O-])cc1S(=O)(=O)Nc1ccc(C2=NOC(c3cccs3)C2)cc1 (centres undefined) | 67.2 | 70.4 | 21.9 | 57 | 23.4 | 28.8 | 19.7 | > 100 | 69.9 | 56.5 | 28.3 | 22.5 | 53.1 | 48.4 | 17.8 | 21.9 | 20.8 | 10.4
4 | N#CCCN(CCC#N)c1ccc(/C=C(\NC(=O)c2cc([N+](=O)[O-])ccc2Cl)C(=O)Nc2ccccc2)cc1 | > 100 | > 100 |  | > 100 |  |  | > 100 | > 100 | > 100 | > 100 | > 100 | > 100 | > 100 |  | > 100 | > 100 |  | 
5 | c1ccc(C(NC2=NCCO2)c2ccccc2)cc1 | > 10 | > 10 | > 10 |  | > 10 | > 10 | > 10 | > 10 | > 10 | > 10 | > 10 | > 10 | > 10 | > 10 | > 10 | > 10 | > 10 | > 10
6 | Cc1c(Cl)nc(Cl)nc1Cl | 7.34 | 0.695 | 2.73 | 4.99 | 2.6 | 20.1 | 3.25 | 3.46 | 18.9 | 5.62 |  | 5.8 | 9.09 | 4.68 | 9.42 | 1.18 | 2.11 | 6.75
7 | Cn1ccc(C(=O)NCCN(CCNC(=O)c2ccn(C)c(=O)c2O)CCNC(=O)c2ccn(C)c(=O)c2O)c(O)c1=O | > 100 | > 100 | > 100 | > 100 | > 100 | > 100 | > 100 | > 100 | > 100 | > 100 | > 100 | > 100 | > 100 | > 100 | > 100 | > 100 | > 100 | > 100
8 | CC(=O)O[C@@H]1C(=O)N(c2ccccc2)[C@@H]1c1cc2ccccc2c2ccccc12 | > 100 | 36.8 | 61.2 | > 100 | > 100 | > 100 | 83.4 | > 100 | > 100 | 96.9 | 40.6 | 59.4 | > 100 |  | > 100 | 87 | > 100 | 48.1
9 | CCOC(=O)C(Cc1cn(C(C)=O)c2ccccc12)P(=O)(OCC)OCC (centres undefined) | > 100 | > 100 | > 100 | > 100 |  | > 100 | > 100 | > 100 | > 100 |  | > 100 | > 100 | > 100 | > 100 |  | > 100 | > 100 | 
10 | CCCn1cc2c(SC)nc(SC)nc2n1 | > 100 | > 100 | > 100 | > 100 |  | > 100 |  | > 100 | > 100 | > 100 | > 100 | > 100 | > 100 | > 100 |  | > 100 | > 100 | 
